Results from BindingDB's records for doi:10.1016/s0960-894x(00)00660-0 (Clinical Research Institute of Montreal, 2001).
Peptide text beside a SMILES is read from it. * marks the point of attachment. X1 = Cc1cc(O)cc(C)c1C[C@H](C)C(=O)*

What was measured:
[1] = Tested for binding affinity towards Opioid receptor delta 1 in rat and guinea pig brain membrane binding assays
[2] = Tested for binding affinity towards Opioid receptor mu 1 in rat and guinea pig brain membrane binding assays

**Q.** For `Cc1cc(O)cc(C)c1C[C@H](C)C(=O)N[C@@H](C)C(=O)NCC(=O)N[C@@H](Cc1ccccc1)C(=O)N[C@@H](CC(C)C)C(N)=O` [(S)-2-[(S)-2-(2-{(S)-2-[(S)-3-(4-Hydroxy-2,6-dimethyl-phenyl)-2-methyl-propionylamino]-propionylamino}-acetylamino)-3-phenyl-propionylamino]-4-methyl-pentanoic acid amide] (X1-AGFL-NH2), which Ki [1] is on record?
**A.** Its Ki is 12 nM.

**Q.** And the Ki [2]?
**A.** The Ki was 192 nM.
